The results in this text go back to paper PMC7284870, “Antimicrobial Peptides from Rat-Tailed Maggots of the Drone Fly Eristalis tenax Show Potent Activity against Multidrug-Resistant Gram-Negative Bacteria” (Microorganisms, 2020).

≈ marks a conversion by molar mass, not a printed value. Where “and” joins values, the source holds several entries; their conditions need not be identical. Equal entries are not always repeated. Where two headings read alike, the source gives them in different places. No end group written: not given here.

Series [1] has as its system E. coli RKI 131/08. The series is described as follows: microbe, parasite or virus in culture. The class given is cell-based, Escherichia coli. The protocol: (§1) The strains that were used in this study (Table 2 and Table S1) were cultivated at 37 °C in cation-adjusted Mueller–Hinton broth (CAMB) in Erlenmeyer flasks, or on the same medium with agar in Petri dishes. Exceptionally, Mycobacterium smegmatis was cultivated at 37 °C in brain heart infusion (BHI) medium that was supplemented with 1% Tween-80 in Erlenmeyer flasks, or on the same medium lacking detergent but with agar in Petri dishes. Strains listed with Robert Koch Institute (RKI) strain numbers are clinical isolates from the RKI strain collection originating from hospitalized patients in Germany. The remaining strains originated from the Sanofi strain collection and they were originally purchased from the American Type Culture Collection or the German Collection of Microorganisms and Cell Cultures. Meropenem/colistin-resistant strains were maintained, as described above, with the appropriate antibiotic added at levels below the minimal inhibitory concentration (MIC).
(§2) The MIC values were determined in 384-well microtiter plates with an assay volume of 20 µL. Immediately before each assay, the cultures of test organisms (bacteria grown for 18 h, Candida albicans and M. smegmatis grown for 48 h) were diluted with the appropriate medium to a density of 1 × 10^6 cells/mL (C. albicans), 1 × 10^5 cells/mL (M. smegmatis) or 5 × 10^5 cells per mL (other species). […] We transferred 2-µL aliquots from this dilution series to new 384-well microtiter plates while using a CyBio-Well 384-channel automated pipettor (Analytic Jena, Jena, Germany) and added 18 µL of the diluted suspension of each test species using a Viafill reagent dispenser (Integra), thus reducing the final peptide concentration 10-fold to the range 1024–0.03125 µg/mL. […] The growth of M. smegmatis was measured using the BacTiter-Glo luminescence test system (Promega, Madison, WI, USA). The growth of the other species was determined by visual inspection of the microtiter plate and turbidimetry based on the optical density at 600 nm (OD600). The MIC was defined as the peptide concentration at which no bacterial growth was observed. We supplemented the test medium with either 150 mM NaCl or 1.25 mM CaCl2 to represent monovalent and divalent cations to simulate physiological conditions.

Series [2] relates to K. pneumoniae RKI 93/10. Put plainly: microbe, parasite or virus in culture. The class given is cell-based, Klebsiella pneumoniae. The protocol:
as §1, §2

For series [3], the system named is HepG2 cells. The series is described as follows: Cytotoxicity (ATP quantification and neutral red uptake). The protocol: The cytotoxicity of the AMPs was determined in 96-well microtiter plates with an assay volume of 200 µL. The peptides were dissolved in PBS and a 1:2 dilution series in DMEM-F12 medium (supplemented with 1% nonessential amino acids, 1% sodium pyruvate, and 5% heat-inactivated fetal calf serum) was prepared in nine steps to produce test concentrations of 400, 200, 100, […], 12.5, 6.25, 3.13, and 1.56 μM (1655–6.46 µg/mL for EtCec1-a, 1713–6.68 µg/mL for EtCec2-a, 1622–6.33 µg/mL for EtCec3-a, 2661–10.38 µg/mL for EtDip). Stocks of the mycoplasma-free HepG2 cell line HB-8065 (ATCC) stored in liquid nitrogen were seeded at a density of 20,000 cells/well into 96-well microplates in 100 μL DMEM-F12 supplemented as above. After incubation overnight at 37 ± 1 °C in a 5% CO2 atmosphere, 100 μL of the test solution was added per well in six replicates. Ketoconazole was used as a positive control and PBS as a negative control. The plates were incubated for 24 h, as above, and the cell viability was assessed using the luminescent CellTiter-Glo ATP monitoring kit (Promega) to determine the quantity of ATP.
HepG2 cells and peptides were prepared as described above, and cell viability was assessed based on the ability of lysosomes to store the dye neutral red (Sigma–Aldrich, ST. Louis, MO, USA). The cells were incubated for 3 h with a neutral red solution, washed twice, and lysed. After complete lysis, the quantity of neutral red was determined by measuring the absorption at 540 nm while using a Tecan Genios Pro plate reader.

Series [4] is described as follows: Metabolic stability in human hepatocytes. It counts as in vitro ADME. Conditions: cryopreserved human hepatocytes in suspension, 0.5 × 10^6 cells/mL, 1 µM peptide. The protocol: The metabolic stability of the E. tenax peptides was assessed by determining the intrinsic clearance while using cryopreserved human hepatocytes in suspension culture in a volume of 60 µL with a seeding densitiy of 0.5 × 10^6 hepatocytes/mL. The peptides were added at a concentration of 1 µM (4.14, 4.28, and 6.65 µg/mL for EtCec1-a, EtCec2-a, and EtDip, respectively). Scaled hepatic clearance for human was calculated based on a weight of 25.71 g liver/kg and a hepatocellularity of 99 × 10^6 cells/g liver.

Series [5] has as its system E. coli ATCC 25922. In short, it runs like this: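 MIC was determined by broth microdilution in cation-adjusted Mueller–Hinton broth at 5 × 10^5 cells/mL. Peptides were tested at 1024–0.03125 µg/mL final, with 18 h incubation at 37 °C with shaking. Growth was scored visually and by OD600. Medium was supplemented with 150 mM NaCl or 1.25 mM CaCl2.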
The mark [6] stands for this setting: HepG2, 24 h, cell viability >80%.
[7] abbreviates: CAMB + 0.075 µg/mL colistin (Col), n=3.
The mark [8] stands for this setting: CAMB + A000173039A [0.25 µg/mL].
[9] abbreviates: CAMB + A000499933A [0.0625 µg/mL].
Setting [10] is: CAMB + A000500059A [0.0625 µg/mL].
Setting [11] is: CAMB + A000500146A [0.0625 µg/mL].
[12] abbreviates: CAMB + Colistin E1 [0.016 µg/mL].
Setting [13] is: CAMB + Colistin E2 [0.016 µg/mL].
The mark [14] stands for this setting: CAMB adjusted to 150 mM NaCl, n=3.

On to `C[C@@H](O)[C@H]1C(=O)N2C(C(=O)O)=C(S[C@@H]3CN[C@H](C(=O)N(C)C)C3)[C@H](C)[C@H]12` [MEM, meropenem], for which the MIC in series [1] (Escherichia coli, RKI131/08) worked out at 32 mg/L (≈ 83.4 µM); in series [2] (Klebsiella pneumoniae, RKI93/10), 64 mg/L (≈ 167 µM).

In the case of “GFLKKIGKKLEGAVQRTRDATIQTIAVAQAAANVAATAKQ-NH2 [EtCec1-NH2]”, the NOEC result in series [3] is given as “greater than 1655 µg/mL”. Also, in series [4], the half-life (as a rule, how long it takes for the measured level to halve) was more than 3.33 h. For the same compound, in series [4], the half-life at 1 µM stood at 7.13 h. Besides, the MIC was 8 mg/L in series [5] (ATCC 25922, 18 h); 4 mg/L in series [1] (RKI 131/08, 18 h); 8 mg/L in series [2] (RKI 93/10, 18 h).

Regarding “GWLRDFGKRIERTGQNIRDATIQTIGIAQEAANVAATLK-NH2 [EtCec2-NH2]”, the NOEC in series [3] (setting [6]) is listed as 535 µg/mL. The compound further yielded a half-life in series [4] of more than 3.33 h. For the same compound, the half-life at 1 µM in series [4] was determined as 3.43 h. Further, the MIC was 4 mg/L in series [5] (setting [7]); more than 256 mg/L in series [5] (CAMB + A000160918 [4 µg/mL]); more than 256 mg/L in series [5] (CAMB + A000161246 [4 µg/mL]); more than 256 mg/L in series [5] (CAMB + A000173031A [4 µg/mL]); more than 256 mg/L in series [5] (CAMB + A000173033A [4 µg/mL]); more than 256 mg/L in series [5] (setting [8]). Moreover, the MIC in series [5] (CAMB + A000173380A [4 µg/mL]) is more than 256 mg/L; in series [5] (CAMB + A000498432A [4 µg/mL]), more than 256 mg/L; in series [5] (setting [9]), 128 mg/L; in series [5] (setting [10]), 256 mg/L; in series [5] (setting [11]), 4 mg/L; in series [5] (CAMB + A000501181A [4 µg/mL]) it was 256 mg/L. In addition, the MIC in series [5] (setting [12]) is 4 mg/L; in series [5] (setting [13]), 2 mg/L; in series [5] (CAMB + PMB [0.016 µg/mL]) it was 2 mg/L; in series [5] (CAMB + PMBN [4 µg/mL]), more than 256 mg/L; in series [5] (setting [14]), 32 mg/L; in series [5] (CAMB, 18 h, 37 °C, n = 4), 32 mg/L. For the same compound, the MIC in series [5] (Table 4, CAMB, n=3) was found to be 32 mg/L; in series [5] (Table 6, CAMB), 32 mg/L; in series [1] (setting [7]) it was 2 mg/L; in series [1] (setting [14]), 16 mg/L; in series [1] (Table 4, CAMB, n=3), 16 mg/L; in series [2] (setting [7]), 8 mg/L. Moreover, the MIC in series [2] (setting [14]) is 256 mg/L; in series [2] (Table 4, CAMB, n=3), 64 mg/L.

For the compound “QFNMQGGGSPRQGFDVNANARFPIWQSQNARNSVHGTASYAQHLGGPYGNSRPNFGGGLQFT [EtDip, diptericin-like peptide of Eristalis tenax]”, the NOEC in series [3] (setting [6]) is given as more than 1330 µg/mL. For the same compound, the half-life in series [4] is 5.75 h and > 3.33 h. The MIC in series [5] (setting [7]) is 4 mg/L; in series [5] (CAMB + A000160918 [4 µg/mL]), more than 256 mg/L; in series [5] (CAMB + A000161246 [4 µg/mL]) it was more than 256 mg/L; in series [5] (CAMB + A000173031A [4 µg/mL]), more than 256 mg/L; in series [5] (CAMB + A000173033A [4 µg/mL]), more than 256 mg/L; in series [5] (setting [8]) it was more than 256 mg/L. In addition, the MIC in series [5] (CAMB + A000173380A [4 µg/mL]) is more than 256 mg/L; in series [5] (CAMB + A000498432A [4 µg/mL]), more than 256 mg/L; in series [5] (setting [9]) it was more than 256 mg/L; in series [5] (setting [10]), more than 256 mg/L; in series [5] (setting [11]), 4 mg/L; in series [5] (CAMB + A000501181A [4 µg/mL]) it was more than 256 mg/L. Besides, the MIC was more than 256 mg/L in series [5] (setting [12]); 2 mg/L in series [5] (setting [13]); 2 mg/L in series [5] (CAMB + PMB [0.016 µg/mL]); more than 256 mg/L in series [5] (CAMB + PMBN [4 µg/mL]); more than 1024 mg/L in series [5] (CAMB, 18 h, 37 °C, n = 4); more than 1024 mg/L in series [5] (Table 5, CAMB, n=3). In addition, the MIC in series [5] (Table 6, CAMB) was more than 256 mg/L; in series [1] (setting [7]), 4 mg/L; in series [1] (Table 5, CAMB, n=3) it was more than 1024 mg/L; in series [2] (setting [7]), more than 1024 mg/L; in series [2] (Table 5, CAMB, n=3) it was more than 1024 mg/L.
